According to PubChem BioAssay AID1963429 (Molecular Pharmacology Branch, DTP, NCI, 2024):

System: 126254-015-R-J1-PDC complex spheroid growth, % test/control
Test: Anticancer human tumor 126254-015-R-J1-PDC patient-derived soft tissue sarcoma cell line growth inhibition [Asc]
Details: for IC50: curve of first compound; for viability, T/C: stronger effect = lower value
Procedure: Multicellular complex tumor spheroid response to apoptosis pathway targeting inhibitors Alrizomadlin, Pelcitoclax, and Dasminapant in combination with a variety of drugs and investigational agents in selected tumor cell lines
The MDM2 inhibitor alrizomadlin, the Bcl-2/Bcl-xL inhibitor pelcitoclax, and the IAPs inhibitor dasminapant were evaluated both individually and in combination with standard of care and investigational anticancer small molecules within a complex spheroid model of solid tumors. . Complex spheroids include a stromal component modeled by human endothelial cells (HUVEC) and fibroblasts modeled by human mesenchymal stem cells (MSCs). The concentration ranges selected for each drug and investigational agent were based upon clinically achievable concentrations if the clinical Cmax of the agent was known.
Compounds. The drugs and investigational agents: alrizomadlin (APG-115; NSC831270), pelcitoclax (APG-1252; NSC835773), dasminapant (APG-1387;NSC834197), TAK-243 (NSC785004), copanlisib (NSC809693), olaparib (NSC753686), talazoparib (NSC767125), cobimetinib (NSC 768068), eltanexor (KPT-8602, NSC 794443), abemaciclib (NSC 768073), sotorasib (NSC818433), adagrasib (NSC 831453), MRTX-1133 (NSC 836407), Iadademestat (ORY1001, NSC 806812), and RMC-4630 (NSC839698), were obtained from the NCI Developmental Therapeutics Program Chemical Repository. The FDA-approved anticancer drug set is available from the Developmental Therapeutics Program at https://dtp.cancer.gov/organization/dscb/obtaining/available plates.htm. […] The stock solutions were prepared in dimethyl sulfoxide (DMSO, Sigma-Aldrich, St. Louis, MO, cat. D2650) at 800-fold the tested concentration and stored at -70 degrees C prior to their use. All drugs and investigational agents were tested over a range starting from a high concentration at or near the clinical Cmax and decreasing in half-log increments. If the clinical Cmax for an agent had not been determined, the highest concentration tested was 10 microM.
The patient-derived cancer (PDC) cell lines include five colon adenocarcinomas: 186277-243-T-J2-PDC, 616215-338-R-J1-PDC, 439559-082-T-J2-PDC, 463943-066-T-J2-PDC, and 519858-162-T-J1-PDC; three pancreatic carcinomas: 323965-272-R-J2-PDC, 521955-158-R6-J3-PDC, and 521955-158-R2-J5-PDC; two uterine sarcomas: 327498-152-R-J2-PDC and 993429-296-R-J1-PDC; two rhabdomyosarcomas: 755483-174-R-J1-PDC and 772245-204-R-J1-PDC; two soft tissue sarcomas: 126254-015-R-J1-PDC and 494315-158-R-J1-PDC; two malignant fibrous histiocytomas: 317291-083-R-J1-PDC and 596521-263-R-J1-PDC; two breast carcinomas: 171881-019-R-J1-PDC and 885512-296-R-J2-PDC; and one ovarian carcinoma: 6556581-035-R-J-PDC were obtained from the NCI PDMR, (https://pdmr.cancer.gov). The established cell lines HSSY-2 synovial sarcoma (RRID:CVCL 8719), SYO-1 synovial sarcoma (RRID:CVCL_7146), MPNST malignant peripheral neural sheath tumor were obtained from the Sloan Kettering Institute. The following established cell lines were purchased from the American Type Culture Collection (ATCC, Manassas, VA), Sor the received from the NCI repository:, PANC-1 pancreatic carcinoma (CRL-1469, RRID:CVCL_0480), OVCAR-5 ovarian carcinoma (RRID:CVCL_1628), OVCAR-8 ovarian carcinoma (RRID:CVCL_1629), , MCF-7 breast carcinoma (CRL-12584, RRID:CVCL_0031), MDA-MB-231 breast carcinoma (CRL-12532, RRID:CVCL_0062), NCI-H1876 small cell lung carcinoma (CRL-5902, RRID:CVCL_1503), NCI-H510A small cell lung carcinoma (HTB-184, RRID:CVCL_1565), NCI-H1417 (CRL-5869, RRID:CVCL_1469), and NCI-H196 small cell lung carcinoma (CRL-5823, RRID:CVCL_1509). Dr. Peter Houghton (Greehey Children's Cancer Research Institute, University of Texas Health Science Center, San Antonio, TX) provided Rh-18 rhabdomyosarcoma (RRID:CVCL_1659). Pooled donor human umbilical vein endothelial cells (HUVEC, Lonza, cat. CC-2519) and human mesenchymal stem cells (hMSC, Lonza, cat. PT-2501) were purchased from Lonza (Walkersville, MD).
Cell Culture. […]
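Also: spheroids exposed to compound for seven days.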
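For viability, T/C in this document: 100% = DMSO vehicle control wells.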

IC50 (second compound 0.03 µM): > 1000 nM
IC50 (second compound 0.0949 µM): > 1000 nM
IC50 (second compound 0.3 µM): > 1000 nM
IC50 (second compound 0.949 µM): > 1000 nM
IC50 (second compound 3 µM): > 1000 nM
SMILES: CNC(C)C(=O)NC1CN(S(=O)(=O)c2cccc(S(=O)(=O)N3CCC4CCC(C(=O)NC(c5ccccc5)c5ccccc5)N4C(=O)C(NC(=O)C(C)NC)C3)c2)CCC2CCC(C(=O)NC(c3ccccc3)c3ccccc3)N2C1=O (stereo not given) + CCN1C(C(=O)NC23CCC(C(=O)O)(CC2)CC3)C(c2cccc(Cl)c2F)C2(C(=O)Nc3cc(Cl)ccc32)C12CCCCC2
viability, T/C (second compound 0.03 µM, first compound 0.00316 µM): 108%
viability, T/C (second compound 0.03 µM, first compound 0.01 µM): 94.3%
viability, T/C (second compound 0.03 µM, first compound 0.0316 µM): 76.7%
viability, T/C (second compound 0.03 µM, first compound 0.1 µM): 61.4%
viability, T/C (second compound 0.03 µM, first compound 0.316 µM): 50.6%
viability, T/C (second compound 0.03 µM, first compound 1 µM): 56.6%
viability, T/C (second compound 0.0949 µM, first compound 0.00316 µM): 104%
viability, T/C (second compound 0.0949 µM, first compound 0.01 µM): 106%
viability, T/C (second compound 0.0949 µM, first compound 0.0316 µM): 78.5%
viability, T/C (second compound 0.0949 µM, first compound 0.1 µM): 67.2%
viability, T/C (second compound 0.0949 µM, first compound 0.316 µM): 52.6%
viability, T/C (second compound 0.0949 µM, first compound 1 µM): 57.6%
viability, T/C (second compound 0.3 µM, first compound 0.00316 µM): 96%
viability, T/C (second compound 0.3 µM, first compound 0.01 µM): 92.9%
viability, T/C (second compound 0.3 µM, first compound 0.0316 µM): 96.4%
viability, T/C (second compound 0.3 µM, first compound 0.1 µM): 65.3%
viability, T/C (second compound 0.3 µM, first compound 0.316 µM): 62%
viability, T/C (second compound 0.3 µM, first compound 1 µM): 55.8%
viability, T/C (second compound 0.949 µM, first compound 0.00316 µM): 103%
viability, T/C (second compound 0.949 µM, first compound 0.01 µM): 90.4%
viability, T/C (second compound 0.949 µM, first compound 0.0316 µM): 79.6%
viability, T/C (second compound 0.949 µM, first compound 0.1 µM): 66%
viability, T/C (second compound 0.949 µM, first compound 0.316 µM): 58%
viability, T/C (second compound 0.949 µM, first compound 1 µM): 55.7%
viability, T/C (second compound 3 µM, first compound 0.00316 µM): 85.7%
viability, T/C (second compound 3 µM, first compound 0.01 µM): 80.8%
viability, T/C (second compound 3 µM, first compound 0.0316 µM): 84.6%
viability, T/C (second compound 3 µM, first compound 0.1 µM): 65.3%
viability, T/C (second compound 3 µM, first compound 0.316 µM): 53.9%
viability, T/C (second compound 3 µM, first compound 1 µM): 59.2%
